# Measurements: US20100137303A1, “NEW COMPOUND 255” (AstraZeneca AB, priority 2008, published 2010)
# Experiments:
# [1] = tested on: Spn548; assay: Bacterial susceptibility testing in liquid media, Spn548 MIC; settings: Streptococcus pneumoniae, 24 h, read-out: Spn548 Mean MIC
# Text: (§1) Compounds may be tested for antimicrobial activity by susceptibility testing in liquid media. Compounds may be dissolved in dimethylsulfoxide and tested in 10 doubling dilutions in the susceptibility assays. The organisms used in the assay may be grown overnight on suitable agar media and then suspended in a liquid medium appropriate for the growth of the organism. The suspension can be a 0.5 McFarland and a further 1 in 10 dilution can be made into the same liquid medium to prepare the final organism suspension in 100 μL. Plates can be incubated under appropriate conditions at 37° C. for 24 hrs prior to reading.
# [2] = tested on: M. tuberculosis; assay: Mycobacteria susceptibility testing, Microplate Alamar Blue Assay, Mtu MIC; assay type: cell-based, Mycobacterium tuberculosis (Mtu); settings: Mycobacterium tuberculosis
# [3] = tested on: Eco-tolC; assay: Bacterial susceptibility testing in liquid media, Eco-tolC MIC; settings: Escherichia coli, read-out: Eco-tolC MIC
# Text: as §1
# [4] = biological target: T1, Msm. GyrB (Mycolicibacterium smegmatis, UniProt A0QNE0); assay: Msmegmatis GyrB enzyme assay (ATPase, malachite green phosphate detection); assay type: biochemical; settings: read-out: Msm_GyrB IC50
# T1 construct: 15 nM Msm; GyrB, 650 μM ATP, and compound in dimethyl sulfoxide
# Protocol: Compounds may be tested for inhibition of GyrB ATPase activity using an ammonium molybdate/malachite green-based phosphate detection assay (Lanzetta, P. A., L. J. Alvarez, P. S. Reinach, and O. A. Candia, 1979, 100: 95-97; Innova Biosciences malachite green detection kit). Assays can be performed in multi-well plates in 50 μl reactions containing: 50 mM HEPES buffer pH 7.7, 250 mM potassium glutamate, 200 mM potassium chloride, 2 mM magnesium chloride, 2% glycerol, 1 mM 1,4-Dithio-DL-threitol, 0.005% Brij-35, 15 nM Msm. GyrB, 650 μM ATP, and compound in dimethyl sulfoxide. Reactions can be quenched with 12.5 μl of ammonium molybdate/malachite green detection reagent (Pi color lock gold & accelerator mix; Innova Biosciences), followed by the addition of 5 μl of stabilizer (Innova Biosciences) after 5 min of incubation.
# T1 sequence (A0QNE0 whole entry): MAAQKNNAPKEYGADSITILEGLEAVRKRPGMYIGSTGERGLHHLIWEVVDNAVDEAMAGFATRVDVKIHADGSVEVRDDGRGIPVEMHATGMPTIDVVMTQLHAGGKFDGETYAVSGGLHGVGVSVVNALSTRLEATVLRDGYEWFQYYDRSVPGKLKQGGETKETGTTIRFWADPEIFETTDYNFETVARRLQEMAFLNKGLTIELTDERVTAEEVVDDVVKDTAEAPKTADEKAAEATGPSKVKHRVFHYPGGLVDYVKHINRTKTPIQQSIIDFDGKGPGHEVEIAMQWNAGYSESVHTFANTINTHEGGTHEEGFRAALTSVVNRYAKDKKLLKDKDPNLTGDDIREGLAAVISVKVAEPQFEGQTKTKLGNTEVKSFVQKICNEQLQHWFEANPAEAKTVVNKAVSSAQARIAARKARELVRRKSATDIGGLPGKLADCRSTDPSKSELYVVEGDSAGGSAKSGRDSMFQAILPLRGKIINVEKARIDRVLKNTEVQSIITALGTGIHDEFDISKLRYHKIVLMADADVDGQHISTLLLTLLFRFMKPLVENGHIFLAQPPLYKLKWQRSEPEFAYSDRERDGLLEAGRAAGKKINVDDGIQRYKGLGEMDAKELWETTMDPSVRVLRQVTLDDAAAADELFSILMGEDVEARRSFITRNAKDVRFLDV
SMILES,MIC [1],MIC [2],MIC [3],IC50 [4]
"CCNC(=O)Nc1nc2cc(-c3cncnc3)c(OCCc3scnc3C)nc2s1 [Example 38, 1-ethyl-3-{5-[2-(4-methyl-1,3-thiazol-5-yl)ethoxy]-6-pyrimidin-5-yl[1,3]thiazolo[5,4-b]pyridin-2-yl}urea]",0.0625 µg/mL,0.281 µg/mL,0.125 µg/mL,< 5.01 nM
"CCNC(=O)Nc1nc2cc(-c3cncnc3)c(OCC(F)(F)F)nc2s1 [Example 39, 1-ethyl-3-[6-pyrimidin-5-yl-5-(2,2,2-trifluoroethoxy)[1,3]thiazolo[5,4-b]pyridin-2-yl]urea]",0.0625 µg/mL,0.25 µg/mL,0.354 µg/mL,< 3.87 nM
"CCNC(=O)Nc1nc2cc(-c3cccnc3)c(OCCOC(C)C)nc2s1 [Example 41, 1-ethyl-3-{5-[2-(1-methylethoxy)ethoxy]-6-pyridin-3-yl[1,3]thiazolo[5,4-b]pyridin-2-yl}urea]",0.0784 µg/mL,2 µg/mL,5.02 µg/mL,9.1 nM
"CCNC(=O)Nc1nc2cc(-c3cncnc3)c(OCC(C)C)nc2s1 [Example 43, 1-ethyl-3-[5-(2-methylpropoxy)-6-pyrimidin-5-yl[1,3]thiazolo[5,4-b]pyridin-2-yl]urea]",0.0727 µg/mL,0.125 µg/mL,0.582 µg/mL,4.39 nM
"CCNC(=O)Nc1nc2cc(-c3cncnc3)c(OCCOCC)nc2s1 [Example 46, 1-[5-(2-ethoxyethoxy)-6-pyrimidin-5-yl[1,3]thiazolo[5,4-b]pyridin-2-yl]-3-ethylurea]",0.0625 µg/mL,0.125 µg/mL,0.25 µg/mL,20 nM
"C=CCOCCOc1nc2sc(NC(=O)NCC)nc2cc1-c1cncnc1 [Example 47, 1-ethyl-3-{5-[2-(prop-2-en-1-yloxy)ethoxy]-6-pyrimidin-5-yl[1,3]thiazolo[5,4-b]pyridin-2-yl}urea]",0.0625 µg/mL,0.125 µg/mL,0.5 µg/mL,17.1 nM
"CCNC(=O)Nc1nc2cc(-c3ccc(F)nc3)c(OCCOC)nc2s1 [Example 48, 1-ethyl-3-[6-(6-fluoropyridin-3-yl)-5-(2-methoxyethoxy)[1,3]thiazolo[5,4-b]pyridin-2-yl]urea]",0.0625 µg/mL,0.707 µg/mL,0.125 µg/mL,4.51 nM
"CCNC(=O)Nc1nc2cc(-c3cncnc3)c(OCC3CCOCC3)nc2s1 [Example 49, 1-ethyl-3-[6-pyrimidin-5-yl-5-(tetrahydro-2H-pyran-4-ylmethoxy)[1,3]thiazolo[5,4-b]pyridin-2-yl]urea]",0.0625 µg/mL,0.0625 µg/mL,0.125 µg/mL,< 2.54 nM
"CCNC(=O)Nc1nc2cc(-c3cncnc3)c(OCc3cscn3)nc2s1 [Example 50, 1-ethyl-3-[6-pyrimidin-5-yl-5-(1,3-thiazol-4-ylmethoxy)[1,3]thiazolo[5,4-b]pyridin-2-yl]urea]",0.0625 µg/mL,0.25 µg/mL,0.25 µg/mL,< 2.54 nM
"CCNC(=O)Nc1nc2cc(-c3cncnc3)c(OCC3CCCO3)nc2s1 (centres unmarked) [Example 51, 1-ethyl-3-[6-pyrimidin-5-yl-5-(tetrahydrofuran-2-ylmethoxy)[1,3]thiazolo[5,4-b]pyridin-2-yl]urea]",0.0625 µg/mL,0.25 µg/mL,0.125 µg/mL,4.87 nM
"CCNC(=O)Nc1nc2cc(-c3cncnc3)c(NCC3CCCO3)nc2s1 (centres unmarked) [Example 52, 1-ethyl-3-{6-pyrimidin-5-yl-5-[(tetrahydrofuran-2-ylmethyl)amino][1,3]thiazolo[5,4-b]pyridin-2-yl}urea]",0.125 µg/mL,1 µg/mL,4 µg/mL,7.88 nM
"CCNC(=O)Nc1nc2cc(-c3cncc(C(=O)OCC)c3)c(OCC3CCOC3)nc2s1 (centres unmarked) [Example 53, ethyl 5-{2-[(ethylcarbamoyl)amino]-5-(tetrahydrofuran-3-ylmethoxy)[1,3]thiazolo[5,4-b]pyridin-6-yl}pyridine-3-carboxylate]",0.0625 µg/mL,2.83 µg/mL,0.5 µg/mL,62.2 nM
"CCNC(=O)Nc1nc2cc(-c3cccc(/C=C/C(=O)O)c3)c(OCC3CCOC3)nc2s1 (centres unmarked) [Example 55, (2E)-3-(3-{2-[(ethylcarbamoyl)amino]-5-(tetrahydrofuran-3-ylmethoxy)[1,3]thiazolo[5,4-b]pyridin-6-yl}phenyl)prop-2-enoic acid]",0.0625 µg/mL,> 8 µg/mL,2 µg/mL,35.2 nM
"CCNC(=O)Nc1nc2cc(-c3cncnc3)c(OC)nc2s1 [Example 56, 1-ethyl-3-(5-methoxy-6-pyrimidin-5-yl[1,3]thiazolo[5,4-b]pyridin-2-yl)urea]",0.0625 µg/mL,0.707 µg/mL,0.5 µg/mL,21.6 nM
"CCNC(=O)Nc1nc2cc(N3CCC(O)C3)c(OCC3CCOC3)nc2s1 (centres unmarked) [Example 58, 1-ethyl-3-(6-(3-hydroxypyrrolidin-1-yl)-5-((tetrahydrofuran-3-yl)methoxy)thiazolo[5,4-b]pyridin-2-yl)urea]",4 µg/mL,> 8 µg/mL,> 32 µg/mL,2110 nM
"CCNC(=O)Nc1nc2cc(-c3ccc(F)nc3)c(OCC3CCOCC3)nc2s1 [Example 59, 1-ethyl-3-[6-(6-fluoropyridin-3-yl)-5-(tetrahydro-2H-pyran-4-ylmethoxy)[1,3]thiazolo[5,4-b]pyridin-2-yl]urea]",0.125 µg/mL,0.5 µg/mL,1 µg/mL,< 4.83 nM
"CCNC(=O)Nc1nc2cc(-c3cncc(F)c3)c(OCC3CCOCC3)nc2s1 [Example 60, 1-ethyl-3-[6-(5-fluoropyridin-3-yl)-5-(tetrahydro-2H-pyran-4-ylmethoxy)[1,3]thiazolo[5,4-b]pyridin-2-yl]urea]",0.125 µg/mL,0.354 µg/mL,1 µg/mL,< 2.54 nM
"CCNC(=O)Nc1nc2cc(-c3cccnc3OC)c(OCC3CCOCC3)nc2s1 [Example 61, 1-ethyl-3-[6-(2-methoxypyridin-3-yl)-5-(tetrahydro-2H-pyran-4-ylmethoxy)[1,3]thiazolo[5,4-b]pyridin-2-yl]urea]",0.25 µg/mL,> 4 µg/mL,16 µg/mL,4.74 nM
"CCNC(=O)Nc1nc2cc(-c3c(C)noc3C)c(OCC3CCOCC3)nc2s1 [Example 62, 1-[6-(3,5-dimethylisoxazol-4-yl)-5-(tetrahydro-2H-pyran-4-ylmethoxy)[1,3]thiazolo[5,4-b]pyridin-2-yl]-3-ethylurea]",8 µg/mL,> 4 µg/mL,64 µg/mL,727 nM
"CCNC(=O)Nc1nc2cc(-c3cncnc3)c(OC[C@H]3CCCO3)nc2s1 [Example 63, 1-ethyl-3-{6-pyrimidin-5-yl-5-[(2R)-tetrahydrofuran-2-ylmethoxy][1,3]thiazolo[5,4-b]pyridin-2-yl}urea]",0.125 µg/mL,0.25 µg/mL,1 µg/mL,2.6 nM
"CCNC(=O)Nc1nc2cc(-c3cncnc3)c(OC3CCOC3)nc2s1 (centres unmarked) [Example 64, 1-ethyl-3-[6-pyrimidin-5-yl-5-(tetrahydrofuran-3-yloxy)[1,3]thiazolo[5,4-b]pyridin-2-yl]urea]",0.125 µg/mL,0.125 µg/mL,0.5 µg/mL,< 2.54 nM
"CCNC(=O)Nc1nc2cc(-c3cncnc3)c(N[C@@H](C)C(=O)OCC)nc2s1 [Example 65, Ethyl N-{2-[(ethylcarbamoyl)amino]-6-pyrimidin-5-yl[1,3]thiazolo[5,4-b]pyridin-5-yl}-L-alaninate]",0.125 µg/mL,0.125 µg/mL,4 µg/mL,< 2.54 nM
"CCNC(=O)Nc1nc2cc(-c3cnc(C#N)nc3)c(OCC3CCOC3)nc2s1 (centres unmarked) [Example 66, 1-[6-(2-cyanopyrimidin-5-yl)-5-(tetrahydrofuran-3-ylmethoxy)[1,3]thiazolo[5,4-b]pyridin-2-yl]-3-ethylurea]",0.125 µg/mL,< 0.043 µg/mL,0.5 µg/mL,< 2.54 nM
"CCNC(=O)Nc1nc2cc(-c3cncnc3)c(N[C@@H](C)C(=O)NC)nc2s1 [Example 67, (2S)-2-[[2-(ethylcarbamoylamino)-6-pyrimidin-5-yl-thiazolo[4,5-e]pyridin-5-yl]amino]-N-methyl-propanamide]",2 µg/mL,1.41 µg/mL,> 64 µg/mL,15.9 nM
"CCNC(=O)Nc1nc2cc(-c3ccc(C(F)(F)F)nc3)c(OCC3CCOC3)nc2s1 (centres unmarked) [Example 70, 1-ethyl-3-{5-(tetrahydrofuran-3-ylmethoxy)-6-[6-(trifluoromethyl)pyridin-3-yl][1,3]thiazolo[5,4-b]pyridin-2-yl}urea]",0.0625 µg/mL,4.76 µg/mL,0.25 µg/mL,6.92 nM
"CCNC(=O)Nc1nc2cc(-c3ccc(F)nc3)c(OC3C=CCCC3)nc2s1 (centres unmarked) [Example 72, 1-[5-(cyclohex-2-en-1-yloxy)-6-(6-fluoropyridin-3-yl)[1,3]thiazolo[5,4-b]pyridin-2-yl]-3-ethylurea]",0.0625 µg/mL,2 µg/mL,0.25 µg/mL,29.1 nM
